Entries after “also recorded” stand apart in the source; their conditions may differ. Where two headings read alike, the source gives them in different places.
How the values were obtained:
[1] = Cytotoxicity, resazurin reduction assay, HepG2; type: cell-based, human; details: human
Procedure: (§1) Vero E6 (African green monkey kidney), Raw264.7 (murine macrophages) and HepG2 (human hepatocyte carcinoma) cell lines, sourced from the American Type Culture Collection, were cultured in DMEM supplemented with 10% (v/v) heat-inactivated fetal bovine serum, 1% (v/v) non-essential amino acids, and 1% (v/v) penicillin-streptomycin. Cells were maintained at 37 °C in a 5% CO2 atmosphere. For cytotoxicity testing, they were seeded (90 µL) in 96-well plates at a density of 1x10^4 cells/well, in duplicate, and allowed to adhere overnight. Serial dilutions (50-0.08 µM) of the compounds were prepared, and 10 µL of each were incubated with the monolayer for 48 hours. Podophyllotoxin was tested as a positive control at 10 μM and 0.5% DMSO (100% cell viability) was used as negative control. Cell viability was then assessed using the resazurin reduction assay, as described above. The 50% cytotoxic concentration (CC50) was calculated using GraphPad Prism software (version 8.0), and selectivity indices (SIs) were determined by dividing the […].
(§2) Data were analysed using Microsoft Excel and GraphPad Prism 8.0. Nonlinear regression with a sigmoidal dose-response fit model was applied to the data to determine IC50 and CC50 values. Results represent the mean ± standard deviation (SD) from two independent experiments performed in duplicate.

[2] = tested on: bloodstream forms of T. b. brucei Lister 427; experiment: Resazurin reduction growth inhibition assay against bloodstream forms of T. b. brucei; type: cell-based, Trypanosoma brucei brucei; details: read-out: IC50 ± SD (µM) T. b. b.
Procedure: Bloodstream forms of T. b. brucei Lister 427, a virulent laboratory strain of Trypanosoma brucei were cultured in HMI-9 medium as previously described. […] The resulting signal measured between 570 nm and 590 nm, is directly proportional to the quantity of viable parasites. […] After incubation, a working solution of resazurin (0.15 mg/mL in DPBS) was added to the plates in a 1:10 (v/v) ratio, followed by incubation for 4 hours at 37 °C with 5% CO2. Fluorescence was measured using an Infinite M200 microplate reader (Tecan) at excitation and emission wavelengths of 530 nm and 590 nm, respectively. Compound achieving ≥ 50% inhibition of trypanosomes were selected for further dose-response studies.
Compounds that adhered to the cutoff criterion (≥ 50% inhibition) were serially diluted and tested for their half-maximal inhibitory concentrations (IC50). […] Dose-response curves were generated using GraphPad Prism software (version 8.0). […]
Data were analysed using Microsoft Excel and GraphPad Prism 8.0. Nonlinear regression with a sigmoidal dose-response fit model was applied to the data to determine IC50 and CC50 values.

[3] = tested on: HepG2 (human hepatocyte carcinoma) cells; experiment: Cytotoxicity, resazurin reduction assay, HepG2; type: cell-based
Procedure: as §1, §2

[4] = tested on: bloodstream forms of T. b. brucei; experiment: Trypanosome killing kinetics (time-kill assay); type: cell-based, Trypanosoma brucei brucei; details: for activity profile in time-kill assay (trypanocidal or cytostatic): 8IC50, 4IC50, IC50, 0.25IC50, over 72 hours
Procedure: (§3) To evaluate the killing kinetics of selected compounds, bloodstream forms of T. b. brucei (2 x 10⁵ cells/mL) were incubated in normal culture conditions in the presence of compounds at 8IC50, 4IC50, IC50, and 0.25IC50 concentrations in 24-well plates. Upon incubation, cultures were centrifuged at 0, 4, 8, 12, 24, 30, 36, 48, 60, and 72 hours’ time intervals at 2,500 rpm followed by motile trypanosomes enumeration using a Lumascope LS520 inverted microscope. To determine the mode of inhibition (parasitostatic or parasiticidal), a rescue experiment was conducted. Trypanosomes were exposed to the test doses (8IC50, 4IC50, IC50, and 0.25IC50) of the compounds for 4 hours. They were then washed three times with phosphate buffer saline (DPBS 1X), centrifuged at 2,500 rpm for 7 minutes, and resuspended in complete drug-free medium. These parasites were cultured under the same conditions, and motile organisms were enumerated with the Neubauer chamber at regular intervals over 72 hours. Data were plotted using GraphPad Prism 8.0 to determine the inhibition kinetics and classify the inhibitors as cidal or static. Pentamidine isethionate served as the reference compound and experiments were performed in duplicate.

[5] = Cytotoxicity, resazurin reduction assay, Vero; type: cell-based; details: African green monkey
Procedure: (§4) For cytotoxicity testing, they were seeded (90 µL) in 96-well plates at a density of 1x10^4 cells/well, in duplicate, and allowed to adhere overnight. […] Cell viability was then assessed using the resazurin reduction assay, as described above. […] Data were analysed using Microsoft Excel and GraphPad Prism 8.0. Nonlinear regression with a sigmoidal dose-response fit model was applied to the data to determine IC50 and CC50 values. Results represent the mean ± standard deviation (SD) from two independent experiments performed in duplicate.

[6] = Cytotoxicity, resazurin reduction assay, Raw264.7; type: cell-based, murine; details: mouse
Procedure: as §4

[7] = molecular target: human CX3C motif chemokine receptor 1 (CX3CR1); design: method as in printed; details: known human target; ref not given; cited from earlier work
[8] = tested on: bloodstream forms of T. b. brucei; experiment: Rescue experiment (4 h exposure, washout, drug-free medium); type: cell-based, Trypanosoma brucei brucei; details: 72 hours monitoring, 4xIC50 and 8xIC50
Procedure: as §3

[9] = molecular target: focal adhesion kinase (FAK); design: method as in ref 31 = [31]; 31 Garcia-Echeverria C , Kanazawa T , Kawahara E , Masuya K , Matsuura N , Miyake T . 2, 4-pyrimidinediamines useful in the treatment of neoplastic diseases, inflammatory and immune system disorders .; details: cited from earlier work
[10] = tested on: insulin-like growth factor 1 (IGF-1R); design: method as in ref 31 = [31]; 31 Garcia-Echeverria C , Kanazawa T , Kawahara E , Masuya K , Matsuura N , Miyake T . 2, 4-pyrimidinediamines useful in the treatment of neoplastic diseases, inflammatory and immune system disorders .; details: cited from earlier work
[11] = molecular target: leucine-rich repeat kinase 2 (LRRK2); design: method as in ref 31 = [31]; 31 Garcia-Echeverria C , Kanazawa T , Kawahara E , Masuya K , Matsuura N , Miyake T . 2, 4-pyrimidinediamines useful in the treatment of neoplastic diseases, inflammatory and immune system disorders .; details: cited from earlier work
[12] = molecular target: anaplastic lymphoma kinase (ALK); design: method as in ref 31 = [31]; 31 Garcia-Echeverria C , Kanazawa T , Kawahara E , Masuya K , Matsuura N , Miyake T . 2, 4-pyrimidinediamines useful in the treatment of neoplastic diseases, inflammatory and immune system disorders .; details: cited from earlier work
[13] = Trypanosoma brucei, 72 h, primary screen, DMSO stock solution, bloodstream form T. b. brucei Lister 427, 72 hours
[14] = primary screen, DMSO stock solution, bloodstream form T. b. brucei Lister 427, 72 hours
[15] = Trypanosoma brucei, 72 h, confirmation screen, powdered form, 72 hours

| Compound | CC50 at 48 h [1] [µM] | IC50 [2, 13] [µM] | CC50 [3] [µM] | IC50 [2, 14] [µM] | other results |
| --- | --- | --- | --- | --- | --- |
| COc1ccc(OC)c(CCNC(=O)c2cn3cc(-c4cc(OC)ccc4OC)nc3s2)c1 [OGHL00225] | > 50 | 9.86 ± 0.0007 |  |  |  |
| CCOc1cc(CCNC(=O)C[C@H]2S[C@@H](c3ccc(C#Cc4ccccc4)cc3)N(c3cccc(C(N)=O)c3)C2=O)ccc1OC [OGHL00152] |  | 8.87 ± 0.7 |  |  |  |
| COc1cc(OC)c(CCNC(=O)c2cn3cc(-c4cc(OCC#N)ccc4OC)nc3s2)c(OC)c1 [OGHL00238] | 2.01 ± 0.46 | 2.67 ± 0.7 |  |  |  |
| COc1nc(/C=C/c2nc3n(n2)CCCC3c2ccccc2C(F)(F)F)ccc1-n1cnc(C)c1 (stereo not drawn) [OGHL00208] | 2.36 ± 0.52 | 7.53 ± 1.27 |  |  |  |
| COc1nc(/C=C/c2nc3n(n2)CCC[C@@H]3c2ccccc2C(F)(F)F)ccc1-n1cnc(C)c1 [OGHL00211] | 5.94 ± 2.55 | 2.37 ± 0.22 |  |  |  |
| COc1cc(C(=O)N(C)C)ccc1-c1cc2nccc(-c3ccc4ccncc4c3)c2o1 [OGHL00250] |  |  | > 50 | 2.15 ± 0.2 |  |
| N=C(N)c1ccc(OCCCCCOc2ccc(C(=N)N)cc2)cc1 [Pentamidine isethionate, reference compound] |  |  |  |  | activity profile in time-kill assay (trypanocidal or cytostatic) [4]: complete and sustained parasite clearance across all tested concentrations; time of exposure to parasite killing / growth arrest ([4]; time-kill assay): ≤ 24 h |
| COc1cc([C@@H]2c3cc4c(cc3[C@H](O)[C@H]3COC(=O)[C@H]23)OCO4)cc(OC)c1OC [Podophyllotoxin, reference compound] |  |  |  |  | CC50 at 48 h ([1]; primary screen, DMSO stock solution, 48 hours, read-out: CC50 ± SD (µM) HepG2): 0.031 ± 0.009 µM; CC50 at 48 h ([5]; confirmation screen, powdered form, 48 hours, read-out: CC50 ± SD (µM) Vero): 0.08 ± 0.005 µM; CC50 at 48 h ([6]; confirmation screen, powdered form, 48 hours, read-out: CC50 ± SD (µM) Raw): 0.016 ± 0.002 µM |
| COc1cccc(CNc2nnc(-c3c[nH]c4ncccc34)o2)c1 [OGHL00138] |  |  | 23.1 ± 3.57 | 1.55 ± 0.2 |  |
| CNC(=O)c1cc(Oc2ccc(NC(=O)Nc3cc(C(F)(F)F)ccc3-n3ccnc3)cc2)ccn1 [OGHL00130] | 12.9 ± 0.5 | 3 |  | 3.05 ± 0.14 |  |
| CCC(C)[S+]([O-])c1ccc(-c2nc3ccncc3[nH]2)c(OC)c1 (stereo not drawn) [OGHL00019] |  |  | 19.8 ± 2.72 | 2.49 ± 0.1 |  |
| CCOc1cc(CCNC(=O)C[C@H]2S[C@@H](c3ccc(C#Cc4ccccc4)cc3)N(c3cccc(C(N)=O)c3)C2=O)ccc1O [OGHL00183] | 50 | 9.64 ± 0.05 |  |  |  |
| CCN=C(c1ccc(OC)c(OC)c1)N1CCCc2cc(C3=NNC(=O)SC3C)ccc21 (stereo not drawn) [OGHL00032] | 48.43 ± 0.25 |  |  |  | IC50 ([2]; Trypanosoma brucei, 72 h): 5.04 ± 0.16 µM |
| COc1ccc(OCCCO)cc1-c1cn2cc(-c3nnc(NCCCCc4ccccc4)o3)ccc2n1 [OGHL00236] |  |  | 9.07 ± 0.94 | 6.19 ± 0.4 |  |
| CN(C)C(=O)/C=C/C(=O)c1ccc(SCc2ccc(Cl)cc2Cl)cc1 [OGHL00006, (E)-4-(4-((2,4-dichlorobenzyl)thio)phenyl)-N,N-dimethyl-4-oxobut-2-enamide] | 17.5 ± 0.94 | ≤ 1 |  | 0.56 ± 0.001 | IC50 [7]: 0.526 µM; IC50 [2, 15]: 0.6 ± 0.1 µM; effect after short exposure and washout (reversible or irreversible) [8]: irreversible trypanocidal activity; also recorded: irreversible trypanocidal effects; CC50 at 48 h [5]: 1.2 ± 0.07 µM; activity profile in time-kill assay (trypanocidal or cytostatic) [4]: strong trypanocidal activity; CC50 at 48 h [6]: 2.2 ± 0.05 µM |
| COc1ccc(C(=O)N2CCC(C)(C)c3cc(C4=NNC(=O)SC4C)ccc32)cc1OC (stereo not drawn) [OGHL00025] | 33.3 ± 2.83 | 9.22 ± 0.0007 |  |  |  |
| COc1cc(OC)c(CCNC(=O)c2ccc3nc(-c4cc(OC)ccc4OC)cn3c2)c(OC)c1 [OGHL00231] | > 50 | 9 |  | 9.06 ± 0.13 |  |
| CNS(=O)(=O)c1ccccc1Nc1nc(Nc2cc(OC)c(OC)cc2C)ncc1Br [OGHL00133, 2-((5-bromo-2-((4,5-dimethoxy-2-methylphenyl)amino)pyrimidin-4-yl)amino)-N-methylbenzenesulfonamide] | > 50 |  |  |  | IC50 [2, 15]: 0.007 ± 0.00073 µM; IC50 [9]: 0.0028 µM; effect after short exposure and washout (reversible or irreversible) [8]: reversible inhibitory effect; IC50 [10]: < 0.08 µM; CC50 at 48 h [5]: 1.01 ± 0.09 µM; activity profile in time-kill assay (trypanocidal or cytostatic) [4]: cytostatic activity; IC50 [11]: 0.00013 µM; IC50 [12]: 0.03 µM; CC50 at 48 h [6]: 4.5 ± 0.1 µM |
| Cc1ccccc1-c1ccc(-c2nc(-c3ccc(CN(C)CCC(=O)O)c(F)c3)no2)cc1OCC1CC1 [OGHL00165] |  |  | > 50 | 8.83 ± 0.09 |  |
| COc1ccc(OCC(N)=O)cc1-c1cn2cc(C(=O)NCCc3c(OC)cccc3OC)sc2n1 [OGHL00241] | 9.259 ± 0.019 | 2.28 ± 0.04 |  |  |  |
| Oc1ccc2[nH]cc(CCCCN3CC=C(c4ccccc4)CC3)c2c1 [OGHL00007] |  |  | > 50 | 5.3 ± 0.7 |  |
| CCCc1nn(C)c2c(=O)[nH]c(-c3cc(C(=O)N=C(N)N)ccc3OCC)nc12 [OGHL00103] |  |  | 41.5 ± 3.4 | 7.8 ± 0.07 |  |
| COc1cc(OC)c(CCNC(=O)c2cn3cc(-c4cc(OC)ccc4OC)nc3s2)c(OC)c1 [OGHL00227] | > 50 | 2.8 ± 0.08 |  |  | fold increase in selectivity ([3]; relative to the analogue of the same series named in the sentence): 3.5 fold |
| CNS(=O)(=O)c1ccccc1Nc1nc(Nc2ccc(N3CCOCC3)cc2OC)ncc1Br [OGHL00134] | 22.1 ± 5.06 | 1.3 |  | 1.31 ± 0.22 |  |
| CN(CCCCc1ccc(F)cc1)CCC(=O)c1ccc2[nH]c(=O)oc2c1 [OGHL00087] |  |  | 27.3 ± 4.5 | 8.62 ± 0.093 |  |

Reference: article PMC12622802, “Potent kinase inhibitors from the Merck KGaA OGHL: Novel hits against Trypanosoma brucei with potential for repurposing” (PLOS Neglected Tropical Diseases, 2025)
